# Assay results reported in ChEMBL document CHEMBL3045868, “Synthesis and antibacterial activities of para-alkoxy phenyl--ketoaldehyde derivatives” (Med Chem Res, 2013).
# Key:
# [1] = tested on: Pseudomonas aeruginosa; assay: Antibacterial activity against Pseudomonas aeruginosa ATCC 27853 assessed as growth inhibition after 16 to 18 hr NCCLS agar dilution method; type: functional
# [2] = tested on: Escherichia coli; assay: Antibacterial activity against Escherichia coli ATCC 25922 assessed as growth inhibition after 16 to 18 hr NCCLS agar dilution method; type: functional
# [3] = tested on: Staphylococcus aureus; assay: Antibacterial activity against Staphylococcus aureus ATCC 25923 assessed as growth inhibition after 16 to 18 hr by NCCLS agar dilution method; type: functional
# [4] = tested on: Helicobacter pylori; assay: Antibacterial activity against Helicobacter pylori 05-9 assessed as growth inhibition after 16 to 18 hr NCCLS agar dilution method; type: functional
# [5] = tested on: Helicobacter pylori; assay: Antibacterial activity against Helicobacter pylori ATCC 11637 assessed as growth inhibition after 16 to 18 hr NCCLS agar dilution method; type: functional
# [6] = tested on: Helicobacter pylori; assay: Antibacterial activity against Helicobacter pylori 05-5 assessed as growth inhibition after 16 to 18 hr NCCLS agar dilution method; type: functional
# [7] = tested on: Helicobacter pylori; assay: Antibacterial activity against Helicobacter pylori 05-14 assessed as growth inhibition after 16 to 18 hr NCCLS agar dilution method; type: functional
# [8] = tested on: Helicobacter pylori; assay: Antibacterial activity against Helicobacter pylori 06-5 assessed as growth inhibition after 16 to 18 hr NCCLS agar dilution method; type: functional
# [9] = tested on: Helicobacter pylori; assay: Antibacterial activity against Helicobacter pylori 05-3 assessed as growth inhibition after 16 to 18 hr NCCLS agar dilution method; type: functional
# [10] = tested on: Helicobacter pylori; assay: Antibacterial activity against Helicobacter pylori assessed as growth inhibition after 16 to 18 hr NCCLS agar dilution method; type: functional
# [11] = tested on: Helicobacter pylori; assay: Antibacterial activity against Helicobacter pylori 06-3 assessed as growth inhibition after 16 to 18 hr NCCLS agar dilution method; type: functional
# [12] = tested on: Helicobacter pylori; assay: Antibacterial activity against Helicobacter pylori 05-1 assessed as growth inhibition after 16 to 18 hr NCCLS agar dilution method; type: functional
# [13] = tested on: Helicobacter pylori; assay: Antibacterial activity against Helicobacter pylori 05-2 assessed as growth inhibition after 16 to 18 hr NCCLS agar dilution method; type: functional
# [14] = tested on: Helicobacter pylori; assay: Antibacterial activity against Helicobacter pylori 06-1 assessed as growth inhibition after 16 to 18 hr NCCLS agar dilution method; type: functional
# [15] = tested on: Helicobacter pylori; assay: Antibacterial activity against Helicobacter pylori 06-6 assessed as growth inhibition after 16 to 18 hr NCCLS agar dilution method; type: functional
# [16] = tested on: Helicobacter pylori; assay: Antibacterial activity against Helicobacter pylori 06-8 assessed as growth inhibition after 16 to 18 hr NCCLS agar dilution method; type: functional
# [17] = tested on: Helicobacter pylori; assay: Antibacterial activity against Helicobacter pylori 06-7 assessed as growth inhibition after 16 to 18 hr NCCLS agar dilution method; type: functional
# [18] = tested on: Helicobacter pylori; assay: Antibacterial activity against Helicobacter pylori 05-12 assessed as growth inhibition after 16 to 18 hr NCCLS agar dilution method; type: functional
# [19] = tested on: Helicobacter pylori; assay: Antibacterial activity against Helicobacter pylori 05-4 assessed as growth inhibition after 16 to 18 hr NCCLS agar dilution method; type: functional, 05-Apr
# [20] = tested on: Helicobacter pylori; assay: Antibacterial activity against Helicobacter pylori 06-4 assessed as growth inhibition after 16 to 18 hr NCCLS agar dilution method; type: functional
# [21] = tested on: Helicobacter pylori; assay: Antibacterial activity against Helicobacter pylori 06-2 assessed as growth inhibition after 16 to 18 hr NCCLS agar dilution method; type: functional
SMILES,MIC [1],MIC [2],MIC [3],MIC [4],MIC [5],MIC [6],MIC [7],MIC [8],MIC [9],MIC50 [10],MIC90 [10],MIC [11],MIC [12],MIC [13],MIC [14],MIC [15],MIC [16],MIC [17],MIC [18],MIC [19],other results
CCCCOc1ccc(/C(C/C=N/OCC)=N\OCC)cc1,> 64 µg/mL,> 64 µg/mL,> 64 µg/mL,–,–,–,–,–,–,–,–,–,–,–,–,–,–,–,–,–,–
CCCCOc1ccc(C(=O)C/C=N/OC)cc1,64 µg/mL,> 64 µg/mL,> 64 µg/mL,–,–,–,–,–,–,–,–,–,–,–,–,–,–,–,–,–,–
CCO/N=C/CC(=O)c1ccc(OC(C)C)cc1,> 64 µg/mL,> 64 µg/mL,> 64 µg/mL,–,–,–,–,–,–,–,–,–,–,–,–,–,–,–,–,–,–
CO/N=C(/C/C=N/OC)c1ccc(OC)cc1,> 64 µg/mL,> 64 µg/mL,> 64 µg/mL,–,–,–,–,–,–,–,–,–,–,–,–,–,–,–,–,–,–
CO/N=C(/C/C=N/OC)c1ccc(OC(C)C)cc1,> 64 µg/mL,> 64 µg/mL,> 64 µg/mL,–,–,–,–,–,–,–,–,–,–,–,–,–,–,–,–,–,–
COc1ccc(C(=O)CC(O)S(=O)(=O)[O-])cc1.[Na+] (stereo not drawn),> 64 µg/mL,> 64 µg/mL,> 64 µg/mL,> 128 µg/mL,> 128 µg/mL,> 128 µg/mL,> 128 µg/mL,> 128 µg/mL,> 128 µg/mL,> 128 µg/mL,> 128 µg/mL,> 128 µg/mL,> 128 µg/mL,> 128 µg/mL,> 128 µg/mL,> 128 µg/mL,> 128 µg/mL,> 128 µg/mL,> 128 µg/mL,> 128 µg/mL,MIC [20]: > 128 µg/mL; MIC [21]: > 128 µg/mL
CCO/N=C(/C/C=N/OCC)c1ccc(OC(C)C)cc1,> 64 µg/mL,> 64 µg/mL,> 64 µg/mL,–,–,–,–,–,–,–,–,–,–,–,–,–,–,–,–,–,–
CCO/N=C/CC(=O)c1ccc(OCC)cc1,> 64 µg/mL,> 64 µg/mL,64 µg/mL,–,–,–,–,–,–,–,–,–,–,–,–,–,–,–,–,–,–
COc1ccc(C(=O)/C=C\O)cc1,> 64 µg/mL,> 64 µg/mL,> 64 µg/mL,> 128 µg/mL,128 µg/mL,> 128 µg/mL,> 128 µg/mL,128 µg/mL,> 128 µg/mL,> 128 µg/mL,> 128 µg/mL,> 128 µg/mL,> 128 µg/mL,> 128 µg/mL,> 128 µg/mL,128 µg/mL,> 128 µg/mL,128 µg/mL,> 128 µg/mL,> 128 µg/mL,MIC [20]: 128 µg/mL; MIC [21]: > 128 µg/mL
CCCCOc1ccc(C(=O)C/C=N/OCC)cc1,> 64 µg/mL,> 64 µg/mL,> 64 µg/mL,–,–,–,–,–,–,–,–,–,–,–,–,–,–,–,–,–,–
Cc1ncc([N+](=O)[O-])n1CCO [METRONIDAZOLE],–,–,–,> 128 µg/mL,32 µg/mL,> 128 µg/mL,> 128 µg/mL,> 128 µg/mL,> 128 µg/mL,> 128 µg/mL,> 128 µg/mL,> 128 µg/mL,> 128 µg/mL,> 128 µg/mL,> 128 µg/mL,> 128 µg/mL,> 128 µg/mL,> 128 µg/mL,> 128 µg/mL,> 128 µg/mL,MIC [20]: > 128 µg/mL; MIC [21]: > 128 µg/mL
COc1ccc(C(=O)C/C=N/O)cc1,> 64 µg/mL,> 64 µg/mL,4 µg/mL,> 128 µg/mL,64 µg/mL,> 128 µg/mL,> 128 µg/mL,64 µg/mL,> 128 µg/mL,> 128 µg/mL,> 128 µg/mL,64 µg/mL,> 128 µg/mL,> 128 µg/mL,64 µg/mL,64 µg/mL,> 128 µg/mL,64 µg/mL,> 128 µg/mL,> 128 µg/mL,MIC [20]: > 128 µg/mL; MIC [21]: > 128 µg/mL
CC[C@H]1OC(=O)[C@H](C)[C@@H](O[C@H]2C[C@@](C)(OC)[C@@H](O)[C@H](C)O2)[C@H](C)[C@@H](O[C@@H]2O[C@H](C)C[C@H](N(C)C)[C@H]2O)[C@](C)(OC)C[C@@H](C)C(=O)[C@H](C)[C@@H](O)[C@]1(C)O [CLARITHROMYCIN],> 64 µg/mL,32 µg/mL,0.12 µg/mL,> 128 µg/mL,32 µg/mL,> 128 µg/mL,> 128 µg/mL,> 128 µg/mL,64 µg/mL,> 128 µg/mL,> 128 µg/mL,> 128 µg/mL,> 128 µg/mL,64 µg/mL,64 µg/mL,128 µg/mL,> 128 µg/mL,128 µg/mL,> 128 µg/mL,> 128 µg/mL,MIC [20]: > 128 µg/mL; MIC [21]: > 128 µg/mL
CCO/N=C/CC(=O)c1ccc(OC)cc1,> 64 µg/mL,> 64 µg/mL,4 µg/mL,–,–,–,–,–,–,–,–,–,–,–,–,–,–,–,–,–,–
CCO/N=C(/C/C=N/OCC)c1ccc(OCC)cc1,> 64 µg/mL,> 64 µg/mL,> 64 µg/mL,–,–,–,–,–,–,–,–,–,–,–,–,–,–,–,–,–,–
COc1ccc(C(=O)C/C=N/NC(N)=O)cc1,> 64 µg/mL,> 64 µg/mL,> 64 µg/mL,> 128 µg/mL,> 128 µg/mL,> 128 µg/mL,> 128 µg/mL,> 128 µg/mL,> 128 µg/mL,> 128 µg/mL,> 128 µg/mL,> 128 µg/mL,> 128 µg/mL,> 128 µg/mL,> 128 µg/mL,128 µg/mL,> 128 µg/mL,128 µg/mL,> 128 µg/mL,> 128 µg/mL,MIC [20]: > 128 µg/mL; MIC [21]: > 128 µg/mL
COc1ccc(C(=O)C/C=N/NC(N)=S)cc1,> 64 µg/mL,> 64 µg/mL,> 64 µg/mL,> 128 µg/mL,> 128 µg/mL,> 128 µg/mL,> 128 µg/mL,> 128 µg/mL,> 128 µg/mL,> 128 µg/mL,> 128 µg/mL,> 128 µg/mL,> 128 µg/mL,> 128 µg/mL,> 128 µg/mL,128 µg/mL,> 128 µg/mL,128 µg/mL,> 128 µg/mL,> 128 µg/mL,MIC [20]: > 128 µg/mL; MIC [21]: > 128 µg/mL
CCOc1ccc(/C(C/C=N/OC)=N\OC)cc1,> 64 µg/mL,> 64 µg/mL,> 64 µg/mL,–,–,–,–,–,–,–,–,–,–,–,–,–,–,–,–,–,–
CCO/N=C(/C/C=N/OCC)c1ccc(OC)cc1,> 64 µg/mL,> 64 µg/mL,> 64 µg/mL,–,–,–,–,–,–,–,–,–,–,–,–,–,–,–,–,–,–
CO/N=C/CC(=O)c1ccc(OC(C)C)cc1,> 64 µg/mL,> 64 µg/mL,> 64 µg/mL,–,–,–,–,–,–,–,–,–,–,–,–,–,–,–,–,–,–
CCOc1ccc(C(=O)C/C=N/OC)cc1,> 64 µg/mL,> 64 µg/mL,32 µg/mL,–,–,–,–,–,–,–,–,–,–,–,–,–,–,–,–,–,–
